Test in all cases: growth of human tumour cells (NCI), 48 h
Test [1] has as its system HT29 colon.
Test [2] relates to HCC-2998 colon.
In test [3] the test system is KM12 colon.
In test [4] the test system is NCI-H226 lung.
The test system of test [5] is SF-268 CNS.
Test [6] concerns RXF 393 renal.
The test system of test [7] is MALME-3M melanoma.
For test [8], the system named is MDA-MB-435.
In test [9] the test system is MDA-MB-231 breast.
Test [10] has as its system NCI/ADR-RES ovarian.

SMILES strings stand for the structures.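 Test compounds were applied to cells in 96-well plates for 48 hours at 5 doses. Abbreviation: GI50, concentration required for 50% inhibition of growth. TGI marks complete inhibition of growth.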

In the case of `COC(=O)/C=C/C1C(C(=O)OC)C2(C(=O)OC)CCC1(C(=O)OC)N2` (stereo not drawn), the TGI in test [1], in [2], in test [3], in test [4], in test [5] and in test [6] was over 100 µM throughout. The TGI in test [7] is over 100 µM.

Consider `O=C(Nc1ccc([N+](=O)[O-])cc1)C1C(=O)C(=O)N(c2ccc([N+](=O)[O-])cc2)C1=O` (stereo not drawn), for which the TGI in test [1], in test [2], in test [3], in test [4], in test [5] and in test [6] was over 100 µM each time. Further, the TGI in test [7] was over 100 µM.

Consider `O=C1CSC(Cc2nc3ccccc3[nH]2)=N1`, for which the TGI in test [1] is over 100 µM; in test [2] it was 36.3 µM; in [3] it was over 64.1 µM; in test [4], 28.3 µM; in test [5], over 31.6 µM; in test [6], 33.1 µM. In test [7], the TGI came to 18.4 µM.

In the case of `O=C(/C=C/c1ccccc1)/C=C/c1ccccc1`, the TGI in test [1] was 35.1 µM; in [2], over 100 µM; in [3] it was 38.2 µM; in test [4], over 100 µM; in test [5] it was 66.4 µM; in [6], over 100 µM. In addition, the TGI in test [7] is 57.7 µM.

`CCCCCCCCCc1cc(=O)c2c(O)cccc2o1`: the TGI in test [1] is over 10 µM; in test [2] it was over 100 µM; in test [3], over 100 µM; in test [4], over 100 µM; in [5], over 100 µM; in [6], over 100 µM. The molecule further yielded a TGI in [7] of over 100 µM.

For the molecule `CN=NN(C)C(=O)NC`, the TGI in test [1], in test [2], in test [3], in [5], in test [6] and in [7] was over 100 µM each time.

`CCOC(=O)c1[nH]c(COC(C)=O)c(CCCOC(C)=O)c1CCCOC(C)=O`: the TGI in [1], in test [2], in test [3], in [4], in test [5] and in test [6] was over 100 µM each time. Also, the TGI in test [7] is over 100 µM.

For `Cc1[nH][nH]c(=O)c1C=Nc1ccc(-c2nc3ccccc3[nH]2)cc1`, the GI50 in [8] was 16.8 µM; in test [3], 18.3 µM; in [9], 12.8 µM; in test [4], 33.7 µM; in test [5], 14.4 µM; in test [6], 11.1 µM. In addition, the TGI in test [8] was 33.7 µM; in [3], 89.7 µM; in [9], 33.8 µM; in test [4], over 100 µM; in test [5] it was 51.1 µM; in [6] it was 46.6 µM.

Regarding `Cc1cc(C)n(CCNCCn2nc(C)cc2C)n1`, the TGI in [2], in [3], in test [5] and in test [6] was over 100 µM each time.

Take `C#CC(=O)Nc1cccc(Nc2nc3c(c(NCc4ccccc4)n2)CCCC3)c1`: the GI50 in [8] is 1.02 µM; in test [2] it was 1.36 µM; in [3], 0.0225 µM; in test [4], 0.147 µM; in test [5], 0.0203 µM; in test [6], 0.0389 µM. The TGI in test [8] is 2.24 µM; in test [2] it was 2.9 µM; in [3], 0.337 µM; in test [4], 0.551 µM; in [5], 0.0958 µM; in [6], 0.239 µM.

As to `O=C(CCC/C(CC(=O)c1ccc(Br)cc1)=N\O)Nc1ccccc1`, the TGI in test [1], in test [2], in test [3], in [4], in test [5] and in [6] was over 100 µM in each case. In test [7], this molecule returned a TGI of over 100 µM.

For the molecule `CC(C)(C)N1CC2(CCCCC2)C1=O`, the TGI in test [1], in test [2], in test [3], in test [4], in test [5] and in test [6] was over 100 µM in each case. This molecule registered a TGI in test [7] of over 100 µM.

`CC(=O)OCC1OC([S-])C(OC(C)=O)C(OC(C)=O)C1OC(C)=O.CC[PH+](CC)CC.CC[PH+](CC)CC.[Au].[Au]` (stereo not drawn): the GI50 in test [1] is 0.319 µM; in test [2], 0.801 µM; in test [3] it was 1.04 µM; in test [4], 0.244 µM; in test [5], 0.207 µM; in [6], 0.0434 µM. The GI50 in test [7] was 0.137 µM. Besides, the TGI in test [1] is 0.989 µM; in test [2] it was 1.95 µM; in test [3] it was 2.66 µM; in test [4], 1.7 µM; in test [5], 0.669 µM; in [6], 0.197 µM. The TGI in test [7] turned out to be 0.32 µM.

In the case of `CCOC(=O)CCc1c(C)c2c(OC(C)=O)cc(OC(C)=O)cc2oc1=O`, the TGI in test [1] was over 100 µM; in [2], over 100 µM; in test [3] it was over 100 µM; in [5], 77.4 µM; in test [6] it was 73.3 µM; in [7], 55.5 µM.

As for `CCN1C(=O)N(CC)C2C1NC(=S)N2/N=C/C=C/c1cccs1` (stereo not drawn), the GI50 is 0.352 µM in test [1]; 0.709 µM in [2]; 0.312 µM in test [3]; 0.648 µM in test [9]; 2.06 µM in test [4]; 1.47 µM in test [5]. Moreover, the GI50 in [6] is 0.182 µM; in test [7], 0.485 µM; in [10], 0.296 µM. Besides, the TGI in test [1] is over 100 µM; in [2], over 100 µM; in test [3], over 100 µM; in test [9], over 100 µM; in test [4], over 28.3 µM; in test [5] it was over 100 µM. In addition, the TGI in [6], in [7] and in [10] was over 100 µM throughout.

These data come from PubChem BioAssay (NCI).
